Measured values as given in patent US8188152B2, “2-aminoalcohols for the treatment of neurodegenerative diseases” (Biocopea Limited, priority 2005, dated 2012).

Tested on: SJL mouse EAE model of multiple sclerosis
Assay: Experimental Allergic Encephalomyelitis (EAE) in SJL mice, clinical neurological scoring 0-5
Type: in vivo
Settings: 10 mg/kg orally once a day
Protocol: Experimental Allergic Encephalomyelitis (EAE) is a central nervous system, autoimmune, demyleinating disease, that mimics many aspects of multiple sclerosis. Acute models of murine EAE are often utilised to evaluate the efficacy of therapeutics.
Acclimatised SJL mice were sensitised by a subcutaneous injection proteolipid protein (PLP) in Freund's complete adjuvant (CFA) acting as an encephalitogenic inoculum. Innoculum was administered subcutaneously at a concentration of 125 μg PLP/300 μg CFA in a volume of 200 μl. 48 hours later, an intraperitoneal injection of pertussis toxin (PTX) was administered at a dose of 20 μg/kg, to increase blood-brain barrier permeability.
(+)-Erythro-2-tert-butylamino-1-(3-chlorophenyl)-propan-1-ol hydrochloride and copoxane were administered from the first day of the experiment and once a day until the end. (+)-Erythro-2-tert-butylamino-1-(3-chlorophenyl)-propan-1-ol hydrochloride was administered orally at a dose of 10 mg/kg. Copaxone was administered intraperitoneally at a dose of 25 mg/kg. Throughout the experiment, careful clinical examinations and body weights were taken to observe the well being of the animal. In addition, clinical scoring of the EAE symptoms was taken to the classical 0-5 scale, as follows: • 0 Normal reactions • 1 Tail weakness • 2 Hind leg weakness and paresis • 3 Hind leg paralysis • 4 Quadriplegia • 5 Moribund/death Results

Compound: C[C@H](NC(C)(C)C)[C@H](O)c1cccc(Cl)c1.Cl [(+)-erythro-2-tert-butylamino-1-(3-chlorophenyl)-propan-1-ol hydrochloride]
- improvement in symptoms / disease resolution (compared to the vehicle): more rapid improvement in symptoms
- maximal neurologic score (versus vehicle, 0-5 scale): no improvement
